From US20230219906A1, “MACROCYCLIC-2-AMINO-3-FLUORO-BUT-3-ENAMIDES AS INHIBITORS OF MCL-1” (Janssen Pharmaceutica NV, priority 2020, published 2023)
Where two headings read alike, the source gives them in different places.

Columns and labels:
[1] = tested on: MOLP-8 human multiple myeloma cell line; assay: Caspase-Glo 3/7 apoptosis induction assay in MOLP-8 cells; assay type: cell-based; conditions: caspase-3/7 activity, 2 hours at 37° C., averaged over all runs on all batches, read-out: MOLP8 AC50
Description: MCL-1 is a regulator of apoptosis and is highly over-expressed in tumor cells that escape cell death. The assay evaluates the cellular potency of small-molecule compounds targeting regulators of the apoptosis pathway, primarily MCL-1, Bfl-1, Bcl-2, and other proteins of the Bcl-2 family. Protein-protein inhibitors disrupting the interaction of anti-apoptotic regulators with BH3-domain proteins initiate apoptosis.
The Caspase-Glo® 3/7 Assay is a luminescent assay that measures caspase-3 and −7 activities in purified enzyme preparations or cultures of adherent or suspension cells. The assay provides a proluminescent caspase-3/7 substrate, which contains the tetrapeptide sequence DEVD. This substrate is cleaved to release aminoluciferin, a substrate of luciferase used in the production of light. Addition of the single Caspase-Glo® 3/7 Reagent in an “add-mix-measure” format results in cell lysis, followed by caspase cleavage of the substrate and generation of a “glow-type” luminescent signal.
This assay uses the MOLP-8 human multiple myeloma cell line, which is sensitive to MCL-1 inhibition.
Cell cultures were maintained between 0.2 and 2.0×10^6 cells/mL. The cells were harvested by collection in 50 mL conical tubes. The cells were then pelleted at 500 g for 5 mins before removing supernatant and resuspension in fresh pre-warmed culture medium. The cells were counted and diluted as needed.
The assay reagent was prepared by transferring the buffer solution to the substrate vial and mixing. The solution may be stored for up to 1 week at 4° C. with negligible loss of signal.
Compounds were delivered in assay-ready plates (Proxiplate) and stored at −20° C. Assays always include 1 reference compound plate containing reference compounds. The plates were spotted with 40 nL of compounds (0.5% DMSO final in cells; serial dilution; […] highest conc. 1/3 dilution, 10 doses, duplicates). The compounds were used at room temperature and 4 μL of pre-warmed media was added to all wells except column 2 and 23. The negative control was prepared by adding 1% DMSO in media. The positive control was prepared by adding the appropriate positive control compound in final concentration of […] in media. The plate was prepared by adding 4 μL negative control to column 23, 4 μL positive control to column 2 and 4 μL cell suspension to all wells in the plate. The plate with cells was then incubated at 37° C. for 2 hours. The assay signal reagent is the Caspase-Glo solution described above, and 8 μL was added to all wells. The plates were then sealed and measured after 30 minutes.
The activity of a test compound was calculated as percent change in apoptosis induction as follows:
% Effect (AC50)=100−(sample-LC)/(HC-LC)*100
% Control=(sample/HC)*100
% Control min=(sample-LC)/(HC-LC)*100

[2] = molecular target: Myeloid Cell Leukemia 1(Mcl-1) (Homo sapiens, UniProt Q07820); assay: Terbium labeled Mcl-1 HTRF binding assay with Cy5-labeled BIM BH3 peptide; conditions: displacement of Cy5 Bim BH3 peptide; Ki=IC50/(1+[L]/Kd), [L]=8 nM, Kd=10 nM; 60 minutes at room temperature; read-out: Tb-MCL1 Ki
Chain of Myeloid Cell Leukemia 1(Mcl-1) (Q07820 whole entry): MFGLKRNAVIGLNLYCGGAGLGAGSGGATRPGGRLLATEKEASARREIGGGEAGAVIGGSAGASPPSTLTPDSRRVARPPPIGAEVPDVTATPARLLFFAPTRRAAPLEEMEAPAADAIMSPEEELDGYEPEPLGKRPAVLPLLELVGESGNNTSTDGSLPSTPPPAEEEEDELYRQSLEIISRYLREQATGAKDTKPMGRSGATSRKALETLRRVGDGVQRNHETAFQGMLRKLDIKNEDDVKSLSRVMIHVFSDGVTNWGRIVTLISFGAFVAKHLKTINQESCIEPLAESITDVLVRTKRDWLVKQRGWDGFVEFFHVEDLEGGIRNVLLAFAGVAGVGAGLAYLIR
Procedure: Terbium labeled Myeloid Cell Leukemia 1(Mcl-1) homogeneous time-resolved fluorescence (HTRF) binding assay utilizing the BIM BH3 peptide (H2N—(C/Cy5Mal) WIAQELRRIGDEFN-OH) as the binding partner for Mcl-1.
This assay evaluated inhibition of the BH3 domain: Mcl-1 interaction by measuring the displacement of Cy5-labeled BIM BH3 peptide (H2N—(C/Cy5Mal) WIAQELRRIGDEFN-OH) in the HTRF assay format.
The following assay and stock buffers were prepared for use in the assay: (a) Stock buffer: 10 mM Tris-HCl, pH=7.5+150 mM NaCl, filtered, sterilized, and stored at 4° C.; and (b) 1X assay buffer, where the following ingredients were added fresh to stock buffer: 2 mM dithiothreitol (DTT), 0.0025% Tween-20, 0.1 mg/mL bovine serum albumin (BSA). The 1X Tb-Mcl-1+Cy5 Bim peptide solution was prepared by diluting the protein stock solution using the 1X assay buffer (b) to 25 pM Tb-Mcl-1 and 8 nM Cy5 Bim peptide.
Using the Acoustic ECHO, 100 nL of 100x test compound(s) were dispensed into individual wells of a white 384-well Perkin Elmer Proxiplate, for a final compound concentration of 1× and final DMSO concentration of 1%. Inhibitor control and neutral control (NC, 100 nL of 100% DMSO) were stamped into columns 23 and 24 of assay plate, respectively. Into each well of the plate was then dispensed 10 μL of the 1X Tb-Mcl-1+Cy5 Bim peptide solution. The plate was centrifuged with a cover plate at 1000 rpm for 1 minute, then incubated for 60 minutes at room temperature with plates covered.
The TR-FRET signal was read on an BMG PHERAStar FSX MicroPlate Reader at room temperature using the HTRF optic module (HTRF: excitation: 337 nm, light source: laser, emission A: 665 nm, emission B: 620 nm, integration start: 60 μs, integration time: […]).
The BMG PHERAStar FSX MicroPlate Reader was used to measure fluorescence intensity at two emission wavelengths—665 nm and 620 nm—and report relative fluorescence units (RFU) for both emissions, as well as a ratio of the emissions (665 nm/620 nm)*10,000. The RFU values were normalized to percent inhibition as follows:
% inhibition=(((NC−IC)−(compound−IC))/(NC−IC))*100
where IC (inhibitor control, low signal)= mean signal of 1X Tb-MCl-1+Cy5 Bim peptide+inhibitor control or 100% inhibition of Mcl-1; NC (neutral control, high signal)= mean signal 1X Tb-MCl-1+Cy5 Bim peptide with DMSO only or 0% inhibition An 11-point dose response curve was generated to determine IC50 values (using GenData) based on the following equation:
Y=Bottom+(Top−Bottom)/(1+10∧((log IC50−X)*HillSlope))
where Y=% inhibition in the presence of X inhibitor concentration; Top=100% inhibition derived from the IC (mean signal of Mcl-1+inhibitor control); Bottom=0% inhibition derived from the NC (mean signal of Mcl-1+DMSO); Hillslope=Hill coefficient; and IC50=concentration of compound with 50% inhibition in relation to top/neutral control (NC).
In this assay [L]=8 nM and Kd=10 nM

SMILES	AC50 ([1]; Homo sapiens, MOLP-8, 2 h)	Ki [2]	AC50 [1]
C[C@@H]1[C@@H](C)C/C=C(\F)[C@H](C(=O)N(C)CCn2cccn2)N2CCC[C@H]2CN2C[C@@]3(CCCc4cc(Cl)ccc43)COc3ccc(cc32)C(=O)NS1(=O)=O [Compound 61]	166 nM	0.074 nM	
C[C@@H]1COCCN1C(=O)[C@H]1/C(F)=C/C[C@H](C)[C@@H](C)S(=O)(=O)NC(=O)c2ccc3c(c2)N(C[C@@H]2CCCN21)C[C@@]1(CCCc2cc(Cl)ccc21)CO3 (single isomer, unassigned) [Compound 11]	163 nM	0.032 nM	
COCCN1CCN(C(=O)[C@H]2/C(F)=C/C[C@H](C)[C@@H](C)S(=O)(=O)NC(=O)c3ccc4c(c3)N(C[C@@H]3CCCN32)C[C@@]2(CCCc3cc(Cl)ccc32)CO4)CC1 [Compound 38]	187 nM	0.051 nM	
C[C@@H]1[C@@H](C)C/C=C(\F)[C@H](C(=O)N(C)C2CCOC2)N2CCC[C@H]2CN2C[C@@]3(CCCc4cc(Cl)ccc43)COc3ccc(cc32)C(=O)NS1(=O)=O (single isomer, unassigned) [Compound 69]	118 nM	0.049 nM	
COC1(C(F)(F)F)CN(C(=O)[C@H]2/C(F)=C/C[C@H](C)[C@@H](C)S(=O)(=O)NC(=O)c3ccc4c(c3)N(C[C@@H]3CCCN32)C[C@@]2(CCCc3cc(Cl)ccc32)CO4)C1 [Compound 42]	463 nM	0.374 nM	
C[C@@H]1[C@@H](C)C/C=C(\F)[C@H](C(=O)N2CCO[C@@H](C)C2)N2CCC[C@H]2CN2C[C@@]3(CCCc4cc(Cl)ccc43)COc3ccc(cc32)C(=O)NS1(=O)=O [Compound 6]	84.3 nM		
COCCN(CCOC)CCN(C)C(=O)[C@H]1/C(F)=C/C[C@H](C)[C@@H](C)S(=O)(=O)NC(=O)c2ccc3c(c2)N(C[C@@H]2CCCN21)C[C@@]1(CCCc2cc(Cl)ccc21)CO3 [Compound 73]	91.4 nM	0.021 nM	
COCCCN(CCCOC)C(=O)[C@H]1/C(F)=C/C[C@H](C)[C@@H](C)S(=O)(=O)NC(=O)c2ccc3c(c2)N(C[C@@H]2CCCN21)C[C@@]1(CCCc2cc(Cl)ccc21)CO3 [Compound 37]	49.5 nM	0.061 nM	
C[C@@H]1[C@@H](C)C/C=C(\F)[C@H](C(=O)N2CCOCC2)N2CC[C@H]2CN2C[C@@]3(CCCc4cc(Cl)ccc43)COc3ccc(cc32)C(=O)NS1(=O)=O [Compound 7]	346 nM	0.223 nM	
C[C@@H]1[C@@H](C)C/C=C(\F)[C@H](C(=O)N(C)CC2CCCCO2)N2CCC[C@H]2CN2C[C@@]3(CCCc4cc(Cl)ccc43)COc3ccc(cc32)C(=O)NS1(=O)=O (single isomer, unassigned) [Compound 72]		0.061 nM	75.2 nM
C[C@@H]1[C@@H](C)C/C=C(\F)[C@H](C(=O)N(C)CCN2CCOCC2)N2CCC[C@H]2CN2C[C@@]3(CCOc4cc(Cl)ccc43)COc3ccc(cc32)C(=O)NS1(=O)=O [Compound 78]	547 nM	0.016 nM	
C[C@@H]1[C@@H](C)C/C=C(\F)[C@H](C(=O)N(C)CC2CCOCC2)N2CCC[C@H]2CN2C[C@@]3(CCCc4cc(Cl)ccc43)COc3ccc(cc32)C(=O)NS1(=O)=O [Compound 22]	56.7 nM	0.047 nM	
C[C@@H]1[C@@H](C)C/C=C(\F)[C@H](C(=O)N(C)CCN2CC(F)(F)C2)N2CCC[C@H]2CN2C[C@@]3(CCCc4cc(Cl)ccc43)COc3ccc(cc32)C(=O)NS1(=O)=O [Compound 87]	84.8 nM	0.071 nM	
C[C@@H]1[C@@H](C)C/C=C(\F)[C@H](C(=O)N2CC(C(F)(F)F)C2)N2CCC[C@H]2CN2C[C@@]3(CCCc4cc(Cl)ccc43)COc3ccc(cc32)C(=O)NS1(=O)=O [Compound 36]	399 nM	0.325 nM	
C[C@@H]1[C@@H](C)C/C=C(\F)[C@H](C(=O)N(C)CC2CCCCO2)N2CCC[C@H]2CN2C[C@@]3(CCCc4cc(Cl)ccc43)COc3ccc(cc32)C(=O)NS1(=O)=O (single isomer, unassigned) [Compound 71]	94.2 nM	0.066 nM	
C[C@@H]1CN(C(=O)[C@H]2/C(F)=C/C[C@H](C)[C@@H](C)S(=O)(=O)NC(=O)c3ccc4c(c3)N(C[C@@H]3CCCN32)C[C@@]2(CCCc3cc(Cl)ccc32)CO4)CCO1 [Compound 4]	71.3 nM	0.084 nM	
CCS(=O)(=O)CCN(C)C(=O)[C@H]1/C(F)=C/C[C@H](C)[C@@H](C)S(=O)(=O)NC(=O)c2ccc3c(c2)N(C[C@@H]2CCCN21)C[C@@]1(CCCc2cc(Cl)ccc21)CO3 [Compound 82]	557 nM	0.025 nM	
CC1CN(CCN(C)C(=O)[C@H]2/C(F)=C/C[C@H](C)[C@@H](C)S(=O)(=O)NC(=O)c3ccc4c(c3)N(C[C@@H]3CCCN32)C[C@@]2(CCCc3cc(Cl)ccc32)CO4)CC(C)O1 (stereo partly drawn) [Compound 44]	87.3 nM	0.104 nM	
C[C@@H]1[C@@H](C)C/C=C(\F)[C@H](C(=O)N2CCCC3(CCOC3)C2)N2CCC[C@H]2CN2C[C@@]3(CCCc4cc(Cl)ccc43)COc3ccc(cc32)C(=O)NS1(=O)=O (single isomer, unassigned) [Compound 14]	266 nM	0.126 nM	
C[C@@H]1[C@@H](C)C/C=C(\F)[C@H](C(=O)N(C)CCN2CCCOCC2)N2CCC[C@H]2CN2C[C@@]3(CCCc4cc(Cl)ccc43)COc3ccc(cc32)C(=O)NS1(=O)=O [Compound 75]	83 nM	0.022 nM	
